Numbers after ± are expanded uncertainties.

For this series the following is noted: for viscosity: 101.33 kPa, Liquid, Falling or rolling sphere viscometry.

What is called viscosity is the resistance of a fluid to flow. For the compound `Cl.Cn1ccnc1` [1-methylimidazolium chloride], the viscosity by setting is: (348.15 K) 108.86 ± 3.6 mPa·s; (351.15 K) 92.99 ± 2.8 mPa·s; (353.15 K) 84.17 ± 2.3 mPa·s; (358.15 K) 66.28 ± 1.6 mPa·s. Where the note is “Crystal, DTA”, the Normal melting temperature came to 74.16 ± 2 °C.

Source of the values: the NIST ThermoML archive (doi:10.1016/j.jct.2011.06.002).
